Data taken from US7795226B2, “Control of radiation injury” (Biotempt B.V., priority 2006, dated 2010).

Legend:
[1] = system: BALB/c mice exposed whole body to 10 Gy 137Cs-γ-irradiation; assay: Whole body γ-irradiation (10 Gy), peptide 1.5 hours after irradiation; type: in vivo; details: 10 mg/kg i.p. 1.5 hours after 10 Gy; for Watery eyes / Weight loss: affected/total; for Mortality: dead/total
Description: (§1) In the first experiment, 12-week-old female BALB/c mice were treated intraperitoneally with a single injection of either PBS (n=9) or with a peptide (LQGV (SEQ ID NO:117), VLPALP (SEQ ID NO:140), LPGCPRGVNPVVS (SEQ ID NO:114), MTRVLQGVLPALPQVVC (SEQ ID NO:113); n=8, 10 mg/kg). One and a half hours after the treatment, mice were exposed whole body to a single dose of 10 Gy ^137Cs-γ-irradiation. In the second experiment, 12-week-old female BALB/c mice were first exposed whole body to a single dose of 10 Gy ^137Cs-γ-irradiation and then 1.5 hours after the irradiation treated intraperitoneally with a single injection of either PBS (n=9) or with a peptide (n=8 or 9, 10 mg/kg).

[2] = system: BALB/c mice exposed whole body to 10 Gy 137Cs-γ-irradiation; assay: Whole body γ-irradiation (10 Gy), peptide 1.5 hours before irradiation; type: in vivo; details: 10 mg/kg i.p. 1.5 hours before 10 Gy; for Watery eyes / Weight loss: affected/total; for Mortality: dead/total
Description: as §1

[3] = system: LPS (E. coli 026:B6)-induced sepsis in BALB/c mice; assay: endotoxin shock survival after early or late treatment with peptide; type: in vivo
Description: (§2) Mice used in sepsis or septic shock experiments: Female BALB/c mice of eight to twelve weeks of age were used for all experiments. The animals were bred in our facility under specific pathogen-free conditions according to the protocols described in the […] of European Laboratory Animal Science Associations (FELASA) Working group on Animal Health (Laboratory Animals 28:1-24, 1994).
(§3) Injection protocols: For the endotoxin model, BALB/c mice were injected i.p. with 150-300 μg LPS (E. coli 026:B6; Difco Lab., Detroit, Mich., USA). Control groups were treated with PBS i.p. only. To test the effect of peptides, they were dissolved in PBS and injected i.p. at predetermined points in time after LPS treatment.
A further set of septic shock experiments were set up to determine which of the peptides LQG, LQGV (SEQ ID NO:117), VLPALP (SEQ ID NO:140), VLPALPQ (SEQ ID NO:143), MTR, MTRV (SEQ ID NO:119), VVC or AQGV (SEQ ID NO:120) under study were most suited to be used early and/or late after or throughout the development of shock. For determining the percent of endotoxin shock survival after late or early treatment with peptide, BALB/c mice were injected i.p. with 300 μg LPS (E. coli 026:B6; Difco Lab., Detroit, Mich. USA), predetermined to be leading to 100% mortality in 48 hours without peptide treatment.
To evaluate the effect of peptide treatment at an early or late point in time of development of shock, mice were treated at two hours or at 24 hours after LPS injection by i.p. injection with test peptide at 5 mg/kg bodyweight. The mice were followed for 84 hours instead of for 48 hours in the earlier experiments.

[4] = system: high dose LPS (E. coli 026:B6)-induced septic shock in BALB/c mice; assay: high dose LPS-induced septic shock, peptide administered twice; type: in vivo; details: peptide twice (t = 2 and 24 hours) 5 mg/kg
Description: as §2, §3
(§4) Mice were scored for sickness severity using the following measurement scheme: • 0 No abnormalities. • 1 Percolated fur, but no detectable behavior differences compared to normal mice. • 2 Percolated fur, huddle reflex, responds to stimuli (such as tap on cage), just as active during handling as healthy mouse. • 3 Slower response to tap on cage, passive or docile when handled, but still curious when alone in a new setting. • 4 Lack of curiosity, little or no response to stimuli, quite immobile. • 5 Labored breathing, inability or slow to self-right after being rolled onto back (moribund, sacrificed). • D Dead.
A second set of septic shock experiments were set up to determine which of the peptides LQG, LQGV (SEQ ID NO:117), VLPALP (SEQ ID NO:140), VLPALPQ (SEQ ID NO:143), MTR, MTRV (SEQ ID NO:119), VVC or AQG, AQGV (SEQ ID NO:120), LAG and LAGV (SEQ ID NO:121) were capable of inhibiting high dose LPS-induced septic shock in mice by treating mice with a double dose of peptide at two and 24 hours after LPS treatment. At each treatment, peptides were used at 5 mg/kg bodyweight. BALB/c mice were injected i.p. with high doses LPS (E. coli 026:B6; Difco Lab., Detroit, Mich. USA), predetermined to be leading to 80 to 100% mortality in 24 to 72 hours.

[5] = system: cell-cycle marker pCDG and auxin-responsive marker DR5::GUS; assay: Arabidopsis thaliana seedling cell-cycle analysis (GUS markers)
Description: To further study anti-cell-cycle activity of various oligopeptides, a proliferation experiment in Arabidopsis Thaliana seedlings was performed. The aim was to test a group of 140 oligopeptides of varying length for their effect on plant marker gene expression during rapid growth when avid cell division occurs.
The peptides were re-suspended in 1× Phosphate Buffer Saline (PBS) pH 8 to a final concentration of 5 mg/ml. The obtained solutions were then divided through 96-well round bottom plates (Corning Incorporated) at 40 microliters per well. Plates were stored before use at […] for four days. Seeds of Arabidopsis thaliana ecotype Ws-0 were surface sterilized in 2% commercial bleach (Gloria) for ten minutes and washed five times with sterile MQ water. The seeds were then re-suspended with 0.1% agar and plated on MS20 plates supplemented with 80 mg/l Kanamycin.
The plates were placed at […] for two nights and then transferred to a climate room at […] and a 16/8 hours photoperiod. After four days of growth, the seedlings were transferred to 96-well plates containing the peptide solutions (four seedlings per well) and incubated for four and eight hours.
For this experiment, Arabidopsis homozygous seedlings harboring two reporter genes fused to GUS were used. […] After incubation with the compounds, the seedlings were stained for GUS. The staining reaction was performed in 100 mM sodium phosphate buffer (pH 7.0) that contained 10 mM EDTA, 10% DMSO, 0.1% Triton X-100, 2 mM X-Gluc, 0.5 mM K3Fe(CN)6 and 0.5 mM K4Fe(CN)6 at […] for 16 hours. […] Seedlings were fixed and cleared in chloral hydrate solution for detailed microscopic observation and photography under a microscope equipped with DIC optics.
Peptides were tested for an effect on marker gene expression on rapidly growing Arabidopsis young seedlings. This was monitored by changes on GUS distribution in different organs: root, root-hypocotyl transition zone and cotyledons.

[6] = system: LPS (E. coli 026:B6)-induced septic shock in BALB/c mice; assay: LPS-induced septic shock, single dose of peptide; type: in vivo; details: single dose 5 mg/kg
Description: as §2, §3, §4
A first set of septic shock experiments were set up to determine which of the peptides LQG, LQGV (SEQ ID NO:117), VLPALP (SEQ ID NO:140), VLPALPQ (SEQ ID NO:143), MTR, MTRV (SEQ ID NO:119), VVC or QVVC (SEQ ID NO:118) were capable of inhibiting lipopolysaccharide (LPS)-induced septic shock in mice by treating mice with a single dose of peptide at two hours after LPS treatment. Peptides were used at 5 mg/kg bodyweight. BALB/c mice were injected i.p. with escalating doses LPS (E. coli 026:B6; Difco Lab., Detroit, Mich. USA), predetermined to be leading to 80 to 100% mortality in 24 to 72 hours.
To test the effect of peptide early in the development of shock, mice were treated at two hours or at 24 hours after treatment with varying doses of LPS by i.p. injection with test peptide at 5 mg/kg bodyweight.

Substance: LPGCPRGVNPVVS
- Watery eyes ([1]; day 0 after irradiation): 0/8
- Weight loss ([1]; day 0 after irradiation): 0/8
- Mortality ([1]; day 0 after irradiation): 0/8
- Mortality ([1]; day 3 after irradiation): 0/8
- Watery eyes ([1]; day 4 after irradiation): 0/8
- Weight loss ([1]; day 4 after irradiation): 8/8
- Mortality ([1]; day 4 after irradiation): 0/8
- Mortality ([1]; day 5 after irradiation): 0/8
- Mortality ([1]; day 6 after irradiation): 6/8
- Mortality ([1]; day 7 after irradiation): 8/8
- Watery eyes ([2]; day 0 after irradiation): 0/8
- Weight loss ([2]; day 0 after irradiation): 0/8
- Mortality ([2]; day 0 after irradiation): 0/8
- Mortality ([2]; day 3 after irradiation): 0/8
- Watery eyes ([2]; day 4 after irradiation): 1/8
- Weight loss ([2]; day 4 after irradiation): 8/8
- Mortality ([2]; day 4 after irradiation): 0/8
- Mortality ([2]; day 5 after irradiation): 0/8
- Mortality ([2]; day 6 after irradiation): 4/8
- Mortality ([2]; day 7 after irradiation): 8/8

Substance: VVC
- % Survival ([3]; 0 hours, peptide 5 mg/kg 2 hours after LPS): 100%
- % Survival ([3]; 0 hours, peptide 5 mg/kg 24 hours after LPS): 100%
- % Survival ([3]; 14 hours, peptide 5 mg/kg 2 hours after LPS): 100%
- % Survival ([3]; 14 hours, peptide 5 mg/kg 24 hours after LPS): 100%
- % Survival ([3]; 24 hours, peptide 5 mg/kg 2 hours after LPS): 100%
- % Survival ([3]; 24 hours, peptide 5 mg/kg 24 hours after LPS): 100%
- % Survival ([3]; 48 hours, peptide 5 mg/kg 2 hours after LPS): 80%
- % Survival ([3]; 48 hours, peptide 5 mg/kg 24 hours after LPS): 100%
- % Survival ([3]; 84 hours, peptide 5 mg/kg 2 hours after LPS): 50%
- % Survival ([3]; 84 hours, peptide 5 mg/kg 24 hours after LPS): 100%
- mice with sickness score 1, effect at t = 48 hours ([4]; LPS dose 10.5): 2
- mice with sickness score 2, effect at t = 24 hours ([4]; LPS dose 10.5): 5
- mice with sickness score 2, effect at t = 48 hours ([4]; LPS dose 10.5): 3
- mice with sickness score 1, effect at t = 48 hours ([4]; LPS dose 11): 2
- mice with sickness score 2, effect at t = 24 hours ([4]; LPS dose 11): 6
- mice with sickness score 2, effect at t = 48 hours ([4]; LPS dose 11): 4
- identified as useful peptide for treatment of radiation injury from cell-cycle studies in plants and in vitro proliferation studies ([5]; Results from Examples 9 and 10): useful
- effect on cell-cycle marker (pCDG) and auxin-responsive marker (DR5::GUS) (in words) ([5]; seedlings incubated four and eight hours, 5 mg/ml peptide solution): clear effect on the tested markers
- mice scored D (dead), effect at t = 24 hours ([6]; LPS dose 7**): 1
- mice scored D (dead), effect at t = 48 hours ([6]; LPS dose 7**): 3
- mice with sickness score 1, effect at t = 48 hours ([6]; LPS dose 7**): 1
- mice with sickness score 2, effect at t = 48 hours ([6]; LPS dose 7**): 1
- mice with sickness score 3, effect at t = 24 hours ([6]; LPS dose 7**): 2
- mice with sickness score 3, effect at t = 48 hours ([6]; LPS dose 7**): 1
- mice with sickness score 4, effect at t = 24 hours ([6]; LPS dose 7**): 1
- mice with sickness score 5, effect at t = 24 hours ([6]; LPS dose 7**): 2
- mice with sickness score 2, effect at t = 48 hours ([6]; LPS dose 7*): 4
- mice with sickness score 3, effect at t = 24 hours ([6]; LPS dose 7*): 4
- mice with sickness score 4, effect at t = 24 hours ([6]; LPS dose 7*): 2
- mice with sickness score 5, effect at t = 48 hours ([6]; LPS dose 7*): 2
- mice with sickness score 1, effect at t = 48 hours ([6]; LPS dose 10): 2
- mice with sickness score 2, effect at t = 24 hours ([6]; LPS dose 10): 2
- mice with sickness score 2, effect at t = 48 hours ([6]; LPS dose 10): 2
- mice with sickness score 3, effect at t = 24 hours ([6]; LPS dose 10): 2
- mice with sickness score 4, effect at t = 24 hours ([6]; LPS dose 10): 2
- mice with sickness score 5, effect at t = 48 hours ([6]; LPS dose 10): 2
